Measured values taken from patent US10165778B2, “Method for controlling pests in soybean” (BASF SE, priority 2014, dated 2019).
Where two headings read alike, the source gives them in different places.

Columns and labels:
Format in all cases: in vivo
[1] = test system: Green Soldier Stink Bug (Nezara viridula); experiment: B.7 soil drench on lima bean plants, 2nd instar nymphs; conditions: read-out: mortality in comparison with untreated controls
Description: B.7 Green Soldier Stink Bug (Nezara viridula)
Lima Bean (Phaseolus lunatus, ‘Henderson Bush,’ Lot #—VR06650) plants were transplanted at the two true-leaf stage into 25.8 cm^2 pots filled with sifted (No. 10 sieve) North Carolina loamy sand soil. Pots were held in the greenhouse and watered daily until treatment. Three days after transplant, the compounds were dissolved in acetone and then diluted with water for a final concentration of 50% acetone. Treatments were applied as a drench in 1 ml solution per plant. Plants were held in an environmental chamber (25±2° C., 24 L) and watered as needed for the duration of the test.
Three days after treatment, plants were infested with five 2nd instar nymphs. Plants were covered with organza fabric bags to prevent escape. Four days after infestation, the number of live nymphs on each plant was recorded, and means were calculated for each treatment. The percent control was calculated as the percent mortality relative to the solvent blank.

[2] = test system: Forest Shield Bug (Eysarcoris aeneus); experiment: B.4 peanut and soybean seed spray test, adults; conditions: 120 h, read-out: mortality in comparison with untreated controls
Description: B.4 Forest Shield Bug (Eysarcoris aeneus)
(§1) The active compound is dissolved at the desired concentration in a mixture of 1:1 (vol:vol) distilled water:acetone.
Row peanuts and soybean seeds were placed in a plastic cup and inoculated with ten adult stage individuals. Insects, food and inside of container are sprayed with 1 ml solution using an air brush. After drying, a water supply source will be placed in the cup and the cup closed with a screened lid. Treated cups were kept at about 20° C. Percent mortality was recorded after 5 days.

[3] = test system: Green Soldier Stink Bug (Nezara viridula); experiment: B.1 soybean pod spray test, 3rd instar nymphs; conditions: 120 h, read-out: mortality in comparison with untreated controls
Description: B.1 Green Soldier Stink Bug (Nezara viridula)
The active compound is dissolved at the desired concentration in a mixture of 1:1 (vol:vol) distilled water:acetone. Surfactant (Kinetic HV) is added at a rate of 0.01% (vol/vol). The test solution is prepared at the day of use.
Soybean pods were placed in microwavable plastic cups lined with moist filter paper and inoculated with ten 3rd instar N. viridula. Using a hand atomizer, approximately 2 ml solution is sprayed into each cup. Treated cups were kept at about 28-29° C. and relative humidity of about 50-60%. Percent mortality was recorded after 5 days.

[4] = test system: Brown Stink Bug (Euschistus heros); experiment: B.6 sprayed soybean seedlings (Intacta and BMX-Potencia), adults; conditions: for mortality at 10 ppm: Euschistus heros; for mortality at 10 ppm / mortality (%) 1 D.A.A / mortality (%) 2 DAA / mortality (%) 6 DAA / mortality (Abbott %) 1 D.A.A / mortality (Abbott %) 2 DAA / mortality (Abbott %) 6 DAA: Ginkgolide A 100 ppm a.i, Bilobalide 10 ppm a.i; for efficacy on soybean plants with Bacillus thuringiensis toxin trait (INTACTA) versus without (BMX-POTENCIA): comparison of INTACTA with BMX-POTENCIA
Description: B.6 Brown Stink Bug (Euschistus heros)
as §1
Soybean seedlings of Intacta and BMX-Potencia with one pair of true leaves were sprayed with 2 ml solution using an airbrush. After dry, the plants in small pots were placed inside a transparent plastic cage and infested with 10 adults adult stage individuals. Treated cups were kept at about 25° C. Percent mortality was recorded after 1, 2, and 6 days after application.
• Corrected mortality according to Abbott, W. S., A method of computing the effectiveness of an insecticide, J. Econ. Entomal., 18 (1925) 265-267.

[5] = test system: Brown Stink Bug (Euschistus heros); experiment: B.3 bean pod spray test, adults; conditions: 120 h, read-out: mortality in comparison with untreated controls
Description: B.3 Brown Stink Bug (Euschistus heros)
as §1
Fresh bean pods were placed in a transparent plastic cup and inoculated with ten adult stage individuals. Insects, food and inside of container are sprayed with 1 ml solution using an air brush. Treated cups were kept at about 25° C. Percent mortality was recorded after 5 days.

[6] = test system: Rice Leaf Bug (Trigonotylus caelestialium); experiment: B.5 sprayed wheat seedling test, 2nd and 3rd stage nymphs; conditions: 120 h, read-out: mortality in comparison with untreated controls
Description: B.5 Rice Leaf Bug (Trigonotylus caelestialium)
as §1
Small wheat seedlings in glass tubes were sprayed with 200 microliter/tube by air brush. After drying, ten 2nd and 3rd nymph stage individuals were released in the tube and the tube closed with a screened lid. Treated cups were kept at about 20° C. Percent mortality was recorded after 5 days.

[7] = test system: Orchid Thrips (Dichromothrips corbetti); experiment: B.2 floral-immersion test on orchid petals, adult thrips; conditions: 72 h, read-out: mortality in comparison with untreated controls
Description: B.2 Orchid Thrips (Dichromothrips corbetti)
Dichromothrips corbetti adults used for bioassay were obtained from a colony maintained continuously under laboratory conditions. For testing purposes, the test compound is diluted in a 1:1 mixture of acetone:water (vol:vol), plus Kinetic HV at a rate of 0.01% v/v.
Thrips potency of each compound was evaluated by using a floral-immersion technique. All petals of individual, intact orchid flowers were dipped into treatment solution and allowed to dry in Petri dishes. Treated petals were placed into individual re-sealable plastic along with about 20 adult thrips. All test arenas were held under continuous light and a temperature of about 28° C. for duration of the assay. After 3 days, the numbers of live thrips were counted on each petal. The percent mortality was recorded 72 hours after treatment.

[8] = test system: Green Soldier Stink Bug (Nezara viridula); experiment: B.8 lima bean seed treatment, 2nd instar nymphs; conditions: 0.063 mg ai/seed, infested ten days after treatment, read four days after infestation
Description: B.8 Green Soldier Stink Bug (Nezara viridula)
Pots (25.8 cm^2) were filled with a 1:1 mixture of sifted (No. 10 sieve) North Carolina loamy sand soil and play sand. Technical material was dissolved in DMSO in a 20 ml scintillation vial. A total application volume of 25 μl of solution was added to a 20 ml vial, ten lima bean seeds (P. lunatus) were added, and the vial was vortexed for 1 minute. Seeds were allowed to dry and planted at a depth of 2 cm later the same day. One seed was planted per pot. Pots were held in the greenhouse and watered daily until infestation.
Ten days after treatment, plants were infested with five 2nd instar nymphs. Plants were covered with organza fabric bags to prevent escape. Plants were held in an environmental chamber (25±2° C., 24 L) and watered as needed.
Four days after infestation, the number of live nymphs on each plant was recorded, and means were calculated for each treatment. The percent control was calculated as the percent mortality relative to the solvent blank.

CC(C)(C)[C@]1(O)C[C@@H]2OC(=O)C[C@@]23C(=O)O[C@@H]2OC(=O)[C@H](O)[C@]213 [Bilobalide, (3aS,5aR,8aS,9R,10aR)-9-tert-butyl-8,9-dihydroxydihydro-9H-furo[2,3-b]furo[3′,2′;2,3]cyclopenta[1,2-c]furan-2,4,7(3H,8H)-trione]
mortality at 300 g/ha [1]: ≥ 75%
mortality at 100 ppm [2]: ≥ 75%
mortality at 10 ppm [3]: ≥ 75%
mortality at 100 ppm [3]: ≥ 75%
mortality at 300 ppm [3]: ≥ 75%
mortality at 500 ppm [3]: ≥ 75%
mortality at 10 ppm ([4]; 24 h, read-out: mortality (%) 1 D.A.A, BMX - POTENCIA soybean, 1 day after application): 5%
mortality at 10 ppm ([4]; 24 h, read-out: mortality (%) 1 D.A.A, INTACTA soybean, 1 day after application): 7.5%
mortality at 10 ppm ([4]; 24 h, read-out: mortality (Abbott %) 1 D.A.A, BMX - POTENCIA soybean, corrected according to Abbott, 1 day after application): 2.6%
mortality at 10 ppm ([4]; 24 h, read-out: mortality (Abbott %) 1 D.A.A, INTACTA soybean, corrected according to Abbott, 1 day after application): 2.6%
mortality at 10 ppm ([4]; 48 h, read-out: mortality (%) 2 DAA, BMX - POTENCIA soybean, 2 days after application): 7.5%
mortality at 10 ppm ([4]; 48 h, read-out: mortality (%) 2 DAA, INTACTA soybean, 2 days after application): 20%
mortality at 10 ppm ([4]; 48 h, read-out: mortality (Abbott %) 2 DAA, BMX - POTENCIA soybean, corrected according to Abbott, 2 days after application): 2.6%
mortality at 10 ppm ([4]; 48 h, read-out: mortality (Abbott %) 2 DAA, INTACTA soybean, corrected according to Abbott, 2 days after application): 15.8%
mortality at 10 ppm ([4]; 144 h, read-out: mortality (%) 6 DAA, BMX - POTENCIA soybean, 6 days after application): 60%
mortality at 10 ppm ([4]; 144 h, read-out: mortality (%) 6 DAA, INTACTA soybean, 6 days after application): 72.5%
mortality at 10 ppm ([4]; 144 h, read-out: mortality (Abbott %) 6 DAA, BMX - POTENCIA soybean, corrected according to Abbott, 6 days after application): 50%
mortality at 10 ppm ([4]; 144 h, read-out: mortality (Abbott %) 6 DAA, INTACTA soybean, corrected according to Abbott, 6 days after application): 65.6%
efficacy on soybean plants with Bacillus thuringiensis toxin trait (INTACTA) versus without (BMX-POTENCIA) [4]: higher efficacy
mortality at 100 ppm [5]: ≥ 75%
mortality at 100 ppm [6]: ≥ 75%
mortality at 500 ppm [7]: ≥ 75%

C[C@@H]1C(=O)O[C@H]2C[C@@]34[C@H]5C[C@@H](C(C)(C)C)[C@]36[C@@H](OC(=O)[C@@H]6O)O[C@@]4(C(=O)O5)[C@]21O [Ginkgolide A]
mortality in comparison with untreated controls [8]: at least 75%
mortality (%) 1 D.A.A ([4]; BMX - POTENCIA soybean, 1 day after application): 10.0%
mortality (%) 2 DAA ([4]; BMX - POTENCIA soybean, 2 days after application): 10.0%
mortality (%) 6 DAA ([4]; BMX - POTENCIA soybean, 6 days after application): 57.5%
mortality (Abbott %) 1 D.A.A ([4]; BMX - POTENCIA soybean, corrected according to Abbott, 1 day after application): 7.7%
mortality (Abbott %) 2 DAA ([4]; BMX - POTENCIA soybean, corrected according to Abbott, 2 days after application): 5.3%
mortality (Abbott %) 6 DAA ([4]; BMX - POTENCIA soybean, corrected according to Abbott, 6 days after application): 46.9%
mortality (%) 1 D.A.A ([4]; INTACTA soybean, 1 day after application): 12.5%
mortality (%) 2 DAA ([4]; INTACTA soybean, 2 days after application): 20.0%
mortality (%) 6 DAA ([4]; INTACTA soybean, 6 days after application): 62.5%
mortality (Abbott %) 1 D.A.A ([4]; INTACTA soybean, corrected according to Abbott, 1 day after application): 7.9%
mortality (Abbott %) 2 DAA ([4]; INTACTA soybean, corrected according to Abbott, 2 days after application): 15.8%
mortality (Abbott %) 6 DAA ([4]; INTACTA soybean, corrected according to Abbott, 6 days after application): 53.1%
efficacy on soybean plants with Bacillus thuringiensis toxin trait (INTACTA) versus without (BMX-POTENCIA) [4]: higher efficacy
